Holding throughout (format): in vivo
Assay [1] deals with db/db mouse. Description: Pancreatic insulin content in db/db mice, Experimental Example 2 (voglibose, compound A). The following applies: male, 6-week-old, powder diet with voglibose 0.001 (w/w)% and/or compound A 0.03 (w/w)% free form for 27 consecutive days, pancreas isolated at day 29, mean ± SD, n=6. As to the method:
(§1) First, the mouse pancreas was homogenated in its 10 times weight of 74% ethanol (containing 0.15 mM hydrochloric acid). The obtained homogenate solution was left standing overnight under the shading conditions at 4° C., and centrifuged at 15000 rpm for 5 min. The obtained supernatant was appropriately diluted with PBS(−) (phosphate-buffered saline) containing 0.1% BSA (bovine serum albumin). The insulin content of the diluted solution was measured by radioimmunoassay (trade name: RAT INSULIN RIA KIT, manufactured by RINCO Research, U.S.A.), and the insulin content per pancreatic tissue weight was calculated. […]
In the above-mentioned Groups A-D, pancreas was isolated from the mice at day 29 from the start of the powder feed administration, and the pancreatic insulin content was measured.
(§2) The insulin content per pancreatic tissue weight was calculated in the same manner as in Experimental Example 1. […]

Assay [2] concerns db/db mouse. The experiment in a line: Pancreatic insulin content in db/db mice, Experimental Example 3 (pioglitazone, compound B). Conditions: male, 6-week-old, powder diet with pioglitazone hydrochloride 0.0075 (w/w)% as pioglitazone and/or compound B 0.03 (w/w)% free form for 26 consecutive days, pancreas isolated at day 28, mean ± SD, n=7. As to the method: as §1
(§3) In the above-mentioned Groups A-D, pancreas was isolated from the mice at day 28 from the start of the powder feed administration, and the pancreatic insulin content was measured.
as §2

For assay [3], the system named is db/db mouse. Description: Pancreatic insulin content in db/db mice, Experimental Example 4 (pioglitazone, compound C). Conditions: male, 6-week-old, powder diet with pioglitazone hydrochloride 0.0075 (w/w)% as pioglitazone and/or compound C 0.1 (w/w)% free form for 26 consecutive days, pancreas isolated at day 28, mean ± SD, n=7. As to the method:
as §1, §3, §2

Structures can show the parent of a compound that is named as a salt.

As to `Cn1c(=O)cc(N2CCC[C@@H](N)C2)n(Cc2ccccc2C#N)c1=O.O=C(O)c1ccccc1` [compound A, 2-[[6-[(3R)-3-amino-1-piperidinyl]-3,4-dihydro-3-methyl-2,4-dioxo-1(2H)-pyrimidinyl]methyl]benzonitrile benzoate], the Pancreatic insulin content in the assay with db/db mouse [1] stood at 92.0 ± 37.0 ng/mg tissue.
`Cn1c(=O)cc(N2CCC[C@@H](N)C2)n(Cc2cc(F)ccc2C#N)c1=O.O=C(O)CCC(=O)O` [compound B, 2-[[6-[(3R)-3-amino-1-piperidinyl]-3,4-dihydro-3-methyl-2,4-dioxo-1(2H)-pyrimidinyl]methyl]-4-fluorobenzonitrile succinate] registered a Pancreatic insulin content with db/db mouse [2] of 58.1 ± 17.0 ng/mg tissue.
On to `N#Cc1ccccc1Cn1c(N2CCC[C@@H](N)C2)ncc(F)c1=O.O=C(O)C(O)C(O)C(=O)O` [compound C, 2-[2-(3-(R)-aminopiperidin-1-yl)-5-fluoro-6-oxo-6H-pyrimidin-1-ylmethyl]benzonitrile tartrate], for which the Pancreatic insulin content in the assay on db/db mouse [3] was found to be 57.2 ± 17.8 ng/mg tissue.
In the case of `CCc1ccc(CCOc2ccc(CC3SC(=O)NC3=O)cc2)nc1` (stereo not drawn) [pioglitazone, pioglitazone hydrochloride], the Pancreatic insulin content in the assay with db/db mouse [3] and in the assay on db/db mouse [2] was 74.8 ± 21.5 ng/mg tissue in each case.
In the assay with db/db mouse [1], `OCC(CO)N[C@H]1C[C@](O)(CO)[C@@H](O)[C@H](O)[C@H]1O` [voglibose] showed a Pancreatic insulin content of 198.1 ± 169.8 ng/mg tissue.

The values above are taken from patent US20090042863A1, “Therapeutic Agent for Diabetes” (Takeda Pharmaceutical Company Limited, priority 2005, published 2009).
